Series [1] deals with 13 human and rodent cell types. As to conditions: for Species selectivity of cytotoxicity (human versus rodent cell types): nine human versus four rodent cell types. From the text:
Human renal mesangial cells obtained from adult kidney tissue were kindly provided by J. Kopp (National Institute of Diabetes and Digestive and Kidney Diseases, NIH, Bethesda, MD). Rat renal proximal tubule cells were freshly isolated from rat kidney by In Vitro ADMET Laboratories, LLC (Rockville, MD). All cells chosen for testing represent target tissues of interest in toxicology from both human and rodent sources; most were transformed lines, but some were nontransformed or primary cells. All are well-characterized cells, produce uniform populations, are relatively easy to culture, and are amenable to a 1,536-well format.
We measured cell viability using a luciferase-coupled ATP quantitation assay (CellTiter-Glo; Promega, Madison, WI). […] Cells were dispensed at 1,000–2,000 cells/5 μL/well in tissue-culture treated 1,536-well white/solid bottom assay plates (Greiner Bio-One North America, Monroe, NC) using a Flying Reagent Dispenser (Aurora Discovery, Carlsbad, CA). All but Jurkat cells (which are grown in suspension) were incubated at 37°C for 5–6 hr to allow for cell attachment, followed by addition of compounds via pin tool (Kalypsys, San Diego, CA). […] At the end of the incubation period, 5 μL of CellTiter-Glo reagent was added, plates were incubated at room temperature for 30 min, and the luminescence intensity of each well was determined using a ViewLux plate reader (PerkinElmer, Shelton, CT).
(§1) Class 1 or 2 compounds were further divided into subclasses based on efficacy and quality of fit (R^2). Compounds with R^2 > 0.9 and high (> 80%) efficacy were designated as subclass a, and compounds with R^2 > 0.9 and low efficacies (30–80%) as subclass b. […] Compound activity correlations between different assays or experiments were assessed by calculating the Pearson correlation coefficient. Hierarchical clustering of compound activity patterns across different assays was performed within Spotfire DecisionSite 8.2 (Spotfire Inc., Cambridge, MA) using the correlation of log IC50 values as the similarity metric.

For the next series, the system named is HepG2 cells. Briefly: Real-time cell electronic sensing (RT-CES) cytotoxicity assay. In kind it is cell-based, Human. The settings on record: HepG2, RT-CES impedance, 0.14 to 100 μM. The method, then:
HepG2 cells in the presence of compounds at concentrations from 0.14 to 100 μM were monitored by measurements of electrical impedance (ACEA Biosciences Inc., San Diego, CA) every 10 min for the first hour, then every hour for 70–90 hr.

A further series relates to NIH 3T3. The class given is cell-based, Mouse. The method, then: (§2) We measured cell viability using a luciferase-coupled ATP quantitation assay (CellTiter-Glo; Promega, Madison, WI). In this assay, luminescent signal is proportional to amount of ATP and thus to the number of metabolically competent cells; cell injury and death result in a dramatic decrease in intracellular ATP levels ([Crouch et al. 1993]). Cells were dispensed at 1,000–2,000 cells/5 μL/well in tissue-culture treated 1,536-well white/solid bottom assay plates (Greiner Bio-One North America, Monroe, NC) using a Flying Reagent Dispenser (Aurora Discovery, Carlsbad, CA). All but Jurkat cells (which are grown in suspension) were incubated at 37°C for 5–6 hr to allow for cell attachment, followed by addition of compounds via pin tool (Kalypsys, San Diego, CA). […] At the end of the incubation period, 5 μL of CellTiter-Glo reagent was added, plates were incubated at room temperature for 30 min, and the luminescence intensity of each well was determined using a ViewLux plate reader (PerkinElmer, Shelton, CT).
(§3) Compound formatting and qHTS were performed as described previously ([Inglese et al. 2006]).
(§4) Analysis of compound concentration–response data was performed as previously described ([Inglese et al. 2006]). […] Compound activity correlations between different assays or experiments were assessed by calculating the Pearson correlation coefficient. […]

The subject of a further series is SH-SY5Y. The method, then:
as §2, §3
as §1, with “Analysis of compound concentration–response data was performed as previously described ([Inglese et al. 2006]). […] Concentration–response titration points for each compound were fitted to the Hill equation ([Hill 1910]), yielding concentrations of half-maximal inhibition (IC50) and maximal response (efficacy) values. […] Class” for “Class”

The next series deals with HEK293. In kind it is cell-based. The method, then:
as §2, §3, §4

The next series relates to N2a. As to conditions: mean ± SD. The method, then: as §2, §3
as §1, with “Analysis of compound concentration–response data was performed as previously described ([Inglese et al. 2006]). […] Concentration–response titration points for each compound were fitted to the Hill equation ([Hill 1910]), yielding concentrations of half-maximal inhibition (IC50) and maximal response (efficacy) values. […] Class” for “Class”

Another series has as its system Jurkat. As to conditions: mean ± SD. The method, then: as §2, §3
as §1, with “Analysis of compound concentration–response data was performed as previously described ([Inglese et al. 2006]). […] Concentration–response titration points for each compound were fitted to the Hill equation ([Hill 1910]), yielding concentrations of half-maximal inhibition (IC50) and maximal response (efficacy) values. […] Class” for “Class”

The test system of another series is SK-N-SH. The settings on record: mean ± SD. The method, then:
as §2, §3
as §1, with “Analysis of compound concentration–response data was performed as previously described ([Inglese et al. 2006]). […] Concentration–response titration points for each compound were fitted to the Hill equation ([Hill 1910]), yielding concentrations of half-maximal inhibition (IC50) and maximal response (efficacy) values. […] Class” for “Class”

Series [2] concerns Rat kidney proximal tubule. The settings on record: mean ± SD. The method, then: as §2, §3
as §1, with “Analysis of compound concentration–response data was performed as previously described ([Inglese et al. 2006]). […] Concentration–response titration points for each compound were fitted to the Hill equation ([Hill 1910]), yielding concentrations of half-maximal inhibition (IC50) and maximal response (efficacy) values. […] Class” for “Class”

Another series deals with Mesangial. As to conditions: mean ± SD. The method, then: as §2, §3
as §1, with “Analysis of compound concentration–response data was performed as previously described ([Inglese et al. 2006]). […] Concentration–response titration points for each compound were fitted to the Hill equation ([Hill 1910]), yielding concentrations of half-maximal inhibition (IC50) and maximal response (efficacy) values. […] Class” for “Class”

A further series concerns BJ. The settings on record: mean ± SD. The method, then: as §2, §3
as §1, with “Analysis of compound concentration–response data was performed as previously described ([Inglese et al. 2006]). […] Concentration–response titration points for each compound were fitted to the Hill equation ([Hill 1910]), yielding concentrations of half-maximal inhibition (IC50) and maximal response (efficacy) values. […] Class” for “Class”

The test system of the next series is H-4-II-E. The settings on record: mean ± SD. The method, then:
as §2, §3
as §1, with “Analysis of compound concentration–response data was performed as previously described ([Inglese et al. 2006]). […] Concentration–response titration points for each compound were fitted to the Hill equation ([Hill 1910]), yielding concentrations of half-maximal inhibition (IC50) and maximal response (efficacy) values. […] Class” for “Class”

In a further series the test system is HepG2. The settings on record: HepG2, mean ± SD. The method, then: as §2, §3
as §1, with “Analysis of compound concentration–response data was performed as previously described ([Inglese et al. 2006]). […] Concentration–response titration points for each compound were fitted to the Hill equation ([Hill 1910]), yielding concentrations of half-maximal inhibition (IC50) and maximal response (efficacy) values. […] Class” for “Class”

The subject of another series is HUV-EC-C. The settings on record: mean ± SD. The method, then:
as §2, §3
as §1, with “Analysis of compound concentration–response data was performed as previously described ([Inglese et al. 2006]). […] Concentration–response titration points for each compound were fitted to the Hill equation ([Hill 1910]), yielding concentrations of half-maximal inhibition (IC50) and maximal response (efficacy) values. […] Class” for “Class”

Another series relates to MRC-5. The settings on record: MRC-5, mean ± SD. The method, then: as §2, §3
as §1, with “Analysis of compound concentration–response data was performed as previously described ([Inglese et al. 2006]). […] Concentration–response titration points for each compound were fitted to the Hill equation ([Hill 1910]), yielding concentrations of half-maximal inhibition (IC50) and maximal response (efficacy) values. […] Class” for “Class”

Entries after “also recorded” stand apart in the source; their conditions may differ. Like-named read-outs stand apart in the source and are kept apart here.

With `CN(C)c1ccc(C(=C2C=CC(=[N+](C)C)C=C2)c2ccccc2)cc1.CN(C)c1ccc(C(=C2C=CC(=[N+](C)C)C=C2)c2ccccc2)cc1.O=C(O)C(=O)O.O=C([O-])C(=O)O.O=C([O-])C(=O)O` [malachite green oxalate], in [1], the “Cytotoxicity pattern across the 13 cell types” value is given as “cytotoxicity in all cell types at similar concentrations”.
`C[C@@H]1CC[C@@]2(OC1)O[C@H]1[C@@H](O)[C@H]3[C@@H]4CC[C@H]5C[C@@H](O[C@@H]6O[C@H](CO)[C@H](O[C@@H]7O[C@H](CO)[C@@H](O)[C@H](O[C@@H]8OC[C@@H](O)[C@H](O)[C@H]8O)[C@H]7O[C@@H]7O[C@H](CO)[C@H](O)[C@H](O[C@@H]8O[C@H](CO)[C@@H](O)[C@H](O)[C@H]8O)[C@H]7O)[C@H](O)[C@H]6O)[C@H](O)C[C@]5(C)[C@H]4CC[C@]3(C)[C@H]1[C@@H]2C` [digitonin]: the “Cytotoxicity pattern across the 13 cell types” value in [1] (0.59 nM to 92 μM, 40 hr) is on record as “cytotoxicity in all cell types at similar concentrations; also recorded: cytotoxic in all 13 cell types; also recorded: uniformly toxic across all cell types”. Moreover, the “Exposure time to full cytotoxicity” value in the series on HepG2 cells amounted to 10 min.
In the case of `[CH3][Hg][Cl]` [methyl mercuric (II) chloride], the “Potency in NIH 3T3 relative to the next most responsive cell type” value in the series with NIH 3T3 is 50 fold.
As for `[K+].[K+].[O]=[Cr](=[O])([O-])[O][Cr](=[O])(=[O])[O-]` [potassium dichromate], the “Cytotoxicity pattern across the 13 cell types” value in series [1] was “cytotoxic in all 13 cell types”. Moreover, the “Exposure time to complete cytotoxicity” value with HepG2 cells amounted to 35 h.
With `CC(=O)[O][Hg][c]1ccccc1` [phenyl mercuric acetate], the “Cytotoxicity pattern across the 13 cell types” value in series [1] is recorded as “uniformly toxic across all cell types”.
As to `CN(C)C(=S)SSC(=S)N(C)C` [tetra-methylthiuram disulfide], the “Potency in SH-SY5Y relative to the next most responsive cell type” value with SH-SY5Y (more potent in SH-SY5Y) is 250 fold.
`CN(C)c1ccc(C(=C2C=CC(=[N+](C)C)C=C2)c2ccc(N(C)C)cc2)cc1.[Cl-]` [hexamethyl-p-rosaniline chloride]: the “Cytotoxicity pattern across the 13 cell types” value in [1] is “cytotoxicity in all cell types at similar concentrations”.
In the case of `C[C@@H]1C[C@@H]([C@H](O)CC2CC(=O)NC(=O)C2)C(=O)[C@@H](C)C1` [cycloheximide], the “Cytotoxicity pattern across the 13 cell types” value in [1] (human, rat, mouse) is “cytotoxic in all but two cell types (MRC-5 and SH-SY5Y)”. In addition, the “Kinetic response (cell index over time)” value with HepG2 cells is reported as “inhibited cell proliferation but did not decrease cell number below what was present at the time of addition”.
In the case of `COc1cccc2c1C(=O)c1c(O)c3c(c(O)c1C2=O)C[C@@](O)(C(=O)CO)C[C@@H]3O[C@H]1C[C@H](N)[C@H](O)[C@H](C)O1` [doxorubicin], the “Cytotoxicity pattern across the 13 cell types” value in series [1] (0.59 nM to 92 μM, 40 hr) is on record as “toxic in all cell types; also recorded: cytotoxic in all 13 cell types”. Besides, the “Exposure time to complete cytotoxicity” value in the series on HepG2 cells turned out to be 35 h.
Take `Cc1ccc2c(c1[N+](=O)[O-])C(=O)c1ccccc1C2=O` [2-methyl-1-nitroanthraquinone]: the Cell type-selective toxicity result with HEK293 (in HEK293 cells) was “selective toxicity”.
Broadly, the Hill coefficient is a measure of the steepness of the concentration-response curve. Take `CC/C(=C(\c1ccccc1)c1ccc(OCCN(C)C)cc1)c1ccccc1` [tamoxifen]: the Hill coefficient is 3.8 ± 1.0 in the series with HEK293 (HEK293, mean ± SD); 2.6 ± 0.8 in the series on NIH 3T3 (NIH 3T3, mean ± SD); 3.1 ± 0.7 with SH-SY5Y (SH-SY5Y, mean ± SD); 4.0 ± 0.8 in the series with N2a; 2.0 ± 0.2 in the series with Jurkat; 3.4 ± 0.7 with SK-N-SH. Also, the Hill coefficient in series [2] is 4.7 ± 0.3; with Mesangial, 2.4 ± 0.8; with BJ, 3.1 ± 1.0; in the series with H-4-II-E, 2.7 ± 0.8; in the series with HepG2, 4.4 ± 0.5; in the series on HUV-EC-C, 4.2 ± 0.5. The Hill coefficient with MRC-5 was found to be 2.9 ± 1.2.
Turning to `Cl.N=C1C=CC(=C(c2ccc(N)cc2)c2ccc(N)cc2)C=C1` [pararosaniline hydrochloride], the “Cytotoxicity pattern across the 13 cell types” value in series [1] (0.59 nM to 92 μM, 40 hr) is reported as “cytotoxicity in all cell types at similar concentrations”.
As to `CN(C)c1ccc(N=Nc2ccccc2)cc1` [dimethylaminoazobenzene], the “Species selectivity of cytotoxicity (human versus rodent cell types)” value (from here on “Species selectivity of cytotoxicity”) in series [1] is on record as “more toxic to rodent cells”.
For `O=C(Nc1ccccc1)Nc1ccccc1` [diphenylurea], the “Species selectivity of cytotoxicity” value in series [1] is on record as “toxicity in cells from one species but not the other”.
As to `C[C@H]1O[C@@H](O[C@H]2[C@@H](O)C[C@H](O[C@H]3[C@@H](O)C[C@H](O[C@H]4CC[C@@]5(C)[C@H](CC[C@@H]6[C@@H]5C[C@@H](O)[C@]5(C)[C@@H](C7=CC(=O)OC7)CC[C@]65O)C4)O[C@@H]3C)O[C@@H]2C)C[C@H](O)[C@@H]1O` [digoxin], the “Species selectivity of cytotoxicity” value in [1] is reported as “more toxic to human cells”.

(Values after publication PMC2265061, “Compound Cytotoxicity Profiling Using Quantitative High-Throughput Screening” (Environmental Health Perspectives, 2007).)
